Among the test systems are U251 CNS; SK-MEL-5 melanoma; OVCAR-4 ovarian; HCT-116 colon; ACHN renal; K-562 leukemia; SF-539 CNS; KM20L2 colon; OVCAR-8 ovarian; UACC-257 melanoma; NCI-H460 lung; M14 melanoma; A549 NSCLC; SF-268 CNS; SR leukemia; MDA-MB-231 breast; T-47D breast; HL-60(TB) leukemia; NCI/ADR-RES ovarian; MCF7 breast.
Assay in all cases: NCI-60 cell line screen, 48 h

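Exposure lasted 48 hours, with cells grown in 96-well plates and compounds tested at five concentrations. The concentration for full growth arrest is given as TGI.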 Bounds are passed on as bounds.

In the case of `COc1cc2ccnc(C#N)c2cc1OCc1ccccc1`, the TGI with U251 CNS, in the assay with SK-MEL-5 melanoma, in the assay on OVCAR-4 ovarian, in the assay on HCT-116 colon, in the assay with ACHN renal and with K-562 leukemia was above 100 µM each time. For the same compound, the TGI with SF-539 CNS, in the assay with KM20L2 colon, with OVCAR-8 ovarian, in the assay on UACC-257 melanoma, in the assay on NCI-H460 lung and in the assay on M14 melanoma was above 100 µM each time. For the same compound, the TGI in the assay with A549 NSCLC and in the assay with SF-268 CNS was above 100 µM throughout.
For `CC1(C)CC(=O)c2c(-c3ccc(Cl)cc3)c(C#N)c(=S)n(C3OC(CO)C(O)C(O)C3O)c2C1` (stereo not drawn), the TGI was above 100 µM in the assay with U251 CNS; 34.8 µM with SK-MEL-5 melanoma; above 100 µM in the assay with SR leukemia; above 100 µM in the assay on OVCAR-4 ovarian; above 100 µM with MDA-MB-231 breast; 89.6 µM in the assay with T-47D breast. In addition, the TGI in the assay with HCT-116 colon was above 100 µM; with ACHN renal, above 100 µM; with K-562 leukemia, 57.3 µM; with SF-539 CNS, above 100 µM; with OVCAR-8 ovarian, above 100 µM; with UACC-257 melanoma it was 98.2 µM. In addition, the TGI with HL-60(TB) leukemia, in the assay with NCI-H460 lung, in the assay with M14 melanoma, in the assay on A549 NSCLC, in the assay with NCI/ADR-RES ovarian and in the assay with SF-268 CNS was above 100 µM each time. The same compound had a TGI in the assay with MCF7 breast above 100 µM.
`CC/C(Cl)=N\OC(=O)Nc1ccc(F)c(Cl)c1`: the TGI with U251 CNS stood at 33.9 µM; in the assay on SK-MEL-5 melanoma, 29 µM; in the assay on SR leukemia, 13.1 µM; with OVCAR-4 ovarian, 31.1 µM; with MDA-MB-231 breast, 41.5 µM; with T-47D breast it was 21.3 µM. The TGI in the assay with HCT-116 colon is 35.3 µM; in the assay on ACHN renal it was 26.7 µM; in the assay on K-562 leukemia it was 3.26 µM; in the assay with SF-539 CNS, 37.3 µM; in the assay with OVCAR-8 ovarian, 36.8 µM; with UACC-257 melanoma, 31.9 µM. The TGI came out at 4.33 µM with HL-60(TB) leukemia; 34.3 µM in the assay on NCI-H460 lung; 23.1 µM in the assay on M14 melanoma; 54.9 µM in the assay on A549 NSCLC; 42.7 µM in the assay with NCI/ADR-RES ovarian; 43.4 µM in the assay with SF-268 CNS. The TGI in the assay on MCF7 breast was 20.1 µM.
On to `CSC12c3cc(C)n(-c4ccc(I)cc4)c3CC(C)(C)CN1C(=O)C2Oc1ccccc1` (stereo not drawn), for which the TGI in the assay on U251 CNS, in the assay on SK-MEL-5 melanoma, in the assay on SR leukemia, in the assay on OVCAR-4 ovarian, with MDA-MB-231 breast and in the assay on T-47D breast was above 100 µM in each case. The TGI in the assay with HCT-116 colon, in the assay on ACHN renal, with K-562 leukemia, with SF-539 CNS, in the assay on OVCAR-8 ovarian and with UACC-257 melanoma was above 100 µM in each case. Also, the TGI with HL-60(TB) leukemia, in the assay on NCI-H460 lung, in the assay on M14 melanoma, with A549 NSCLC, with NCI/ADR-RES ovarian and with SF-268 CNS was above 100 µM each time. Also, in the assay with MCF7 breast, the TGI was above 100 µM.
In the case of `C/C(=C\[Si](C)(C)c1ccco1)C(C)(O)[C@H](C)O` (stereo partly drawn), the TGI in the assay with U251 CNS was above 100 µM; in the assay with SK-MEL-5 melanoma it was above 100 µM; in the assay on SR leukemia, above 100 µM; in the assay on OVCAR-4 ovarian, 12.8 µM; in the assay with MDA-MB-231 breast, above 100 µM; in the assay with T-47D breast, 54.2 µM. Moreover, the TGI in the assay on HCT-116 colon was above 100 µM; in the assay with ACHN renal, above 100 µM; with K-562 leukemia, above 100 µM; in the assay with SF-539 CNS it was above 100 µM; with OVCAR-8 ovarian, above 100 µM; in the assay on UACC-257 melanoma, 96.3 µM. Further, the TGI in the assay on HL-60(TB) leukemia, in the assay with NCI-H460 lung, in the assay on M14 melanoma, with A549 NSCLC, in the assay with NCI/ADR-RES ovarian and in the assay with SF-268 CNS was above 100 µM throughout. The compound further gave a TGI in the assay with MCF7 breast above 100 µM.
Turning to `O=C1CC(n2ccnc2)c2c(Cl)sc(Cl)c21` (stereo not drawn), the TGI with U251 CNS is 35.6 µM; in the assay with SK-MEL-5 melanoma, 41.2 µM; with SR leukemia, above 19.8 µM; in the assay with OVCAR-4 ovarian, 42.3 µM; in the assay on MDA-MB-231 breast it was 36.5 µM; in the assay with T-47D breast, 53.2 µM. In addition, the TGI in the assay with HCT-116 colon was 29.5 µM; in the assay on ACHN renal it was 33.2 µM; in the assay on K-562 leukemia it was above 38.1 µM; in the assay with SF-539 CNS, 35.4 µM; with OVCAR-8 ovarian, 27.8 µM; in the assay with UACC-257 melanoma, above 51.1 µM. The TGI was above 100 µM in the assay on HL-60(TB) leukemia; above 73.9 µM with NCI-H460 lung; 35.3 µM in the assay on M14 melanoma; above 64.7 µM in the assay with A549 NSCLC; 71.5 µM in the assay on NCI/ADR-RES ovarian; 59.3 µM with SF-268 CNS. This compound gave a TGI in the assay with MCF7 breast of 28 µM.
For the compound `c1cc2c(cc1C1OCC3C(c4ccc5c(c4)OCO5)OCC13)OCO2` (stereo not drawn), the TGI in the assay on U251 CNS was above 100 µM; in the assay on SK-MEL-5 melanoma, 83.7 µM; with OVCAR-4 ovarian it was above 100 µM; in the assay on HCT-116 colon it was above 100 µM; in the assay with ACHN renal it was above 100 µM; with K-562 leukemia, above 100 µM. Further, the TGI in the assay on SF-539 CNS, in the assay on KM20L2 colon, in the assay with OVCAR-8 ovarian, in the assay with UACC-257 melanoma, in the assay on NCI-H460 lung and in the assay on M14 melanoma was above 100 µM in each case. Also, the TGI in the assay with A549 NSCLC and with SF-268 CNS was above 100 µM throughout.
As for `Cc1nc(C)c(N2CCN(Cc3ccccc3)CC2)c(=O)[nH]1`, the TGI in the assay with U251 CNS, in the assay with SK-MEL-5 melanoma, with SR leukemia, with OVCAR-4 ovarian, with MDA-MB-231 breast and in the assay on T-47D breast was above 100 µM throughout. Besides, the TGI with HCT-116 colon, in the assay with ACHN renal, with K-562 leukemia, in the assay on SF-539 CNS, with OVCAR-8 ovarian and in the assay with UACC-257 melanoma was above 100 µM throughout. The TGI with HL-60(TB) leukemia, with NCI-H460 lung, in the assay on M14 melanoma, with A549 NSCLC, in the assay on NCI/ADR-RES ovarian and with SF-268 CNS was above 100 µM each time. The compound also showed a TGI in the assay on MCF7 breast above 100 µM.
Consider `c1ccc2c(c1)CCN1CCc3ccccc3C1C2` (stereo not drawn), for which the TGI is above 100 µM in the assay with U251 CNS; 37 µM in the assay on SK-MEL-5 melanoma; above 100 µM with SR leukemia; above 100 µM in the assay on OVCAR-4 ovarian; above 100 µM in the assay with MDA-MB-231 breast; above 100 µM in the assay on T-47D breast. Also, the TGI in the assay with HCT-116 colon was above 100 µM; with ACHN renal, above 100 µM; in the assay with K-562 leukemia it was above 100 µM; in the assay on SF-539 CNS it was 61.5 µM; with OVCAR-8 ovarian, above 100 µM; in the assay on UACC-257 melanoma, above 100 µM. For the same compound, the TGI was above 100 µM in the assay on HL-60(TB) leukemia; above 100 µM in the assay with NCI-H460 lung; 82.1 µM in the assay with M14 melanoma; above 100 µM in the assay with A549 NSCLC; above 100 µM in the assay with NCI/ADR-RES ovarian; above 100 µM in the assay with SF-268 CNS. Further, in the assay with MCF7 breast, the TGI was above 100 µM.
In the case of `CCOC(=O)/C(=C\c1c[nH]c2ccccc12)P(=O)(OCC)OCC`, the TGI with U251 CNS is above 100 µM; in the assay with SK-MEL-5 melanoma it was above 100 µM; in the assay on SR leukemia, 61.1 µM; in the assay with OVCAR-4 ovarian it was 89.4 µM; in the assay with MDA-MB-231 breast, 68.4 µM; in the assay on T-47D breast it was above 100 µM. Also, the TGI with HCT-116 colon was above 100 µM; in the assay with ACHN renal, above 100 µM; in the assay with K-562 leukemia it was above 100 µM; in the assay on SF-539 CNS, 43.6 µM; with OVCAR-8 ovarian, 53.5 µM; in the assay with UACC-257 melanoma, above 100 µM. Also, the TGI with HL-60(TB) leukemia is 62 µM; in the assay with NCI-H460 lung, 61.9 µM; in the assay on M14 melanoma, above 100 µM; in the assay with A549 NSCLC, above 100 µM; with NCI/ADR-RES ovarian, above 100 µM; in the assay with SF-268 CNS, above 100 µM. The compound further gave a TGI in the assay on MCF7 breast above 100 µM.
Regarding `COC(=O)[C@]12CC[C@H]3CN(S(=O)(=O)c4ccc(C)cc4)[C@H]([C@H]31)[C@H](c1ccco1)N2S(=O)(=O)c1ccc(C)cc1`, the TGI in the assay on U251 CNS was above 100 µM; in the assay with SK-MEL-5 melanoma it was above 100 µM; in the assay with SR leukemia, above 100 µM; in the assay on OVCAR-4 ovarian, above 100 µM; in the assay with MDA-MB-231 breast it was above 100 µM; with T-47D breast, 49.5 µM. The TGI with HCT-116 colon was above 100 µM; with ACHN renal, above 100 µM; in the assay on K-562 leukemia it was above 100 µM; in the assay on SF-539 CNS, above 100 µM; with OVCAR-8 ovarian, above 100 µM; in the assay on UACC-257 melanoma, 81.1 µM. Besides, the TGI in the assay on HL-60(TB) leukemia is 91.5 µM; in the assay on NCI-H460 lung, above 100 µM; in the assay with M14 melanoma, 92.4 µM; with A549 NSCLC, above 100 µM; in the assay on NCI/ADR-RES ovarian it was above 100 µM; with SF-268 CNS, above 100 µM. Moreover, the TGI in the assay on MCF7 breast was above 100 µM.
Regarding `OC1C2CCCCN2C[C@@H](O)[C@H]1O` (stereo partly drawn), the TGI in the assay on U251 CNS, in the assay on SK-MEL-5 melanoma, with SR leukemia, with OVCAR-4 ovarian, in the assay on MDA-MB-231 breast and in the assay with T-47D breast was above 100 µM throughout. Besides, the TGI in the assay with HCT-116 colon, in the assay with ACHN renal, with K-562 leukemia, in the assay on SF-539 CNS, in the assay on OVCAR-8 ovarian and in the assay on UACC-257 melanoma was above 100 µM each time. Further, the TGI with HL-60(TB) leukemia, in the assay with NCI-H460 lung, in the assay on M14 melanoma, in the assay with A549 NSCLC, in the assay with NCI/ADR-RES ovarian and with SF-268 CNS was above 100 µM in each case. In the assay on MCF7 breast, this compound showed a TGI above 100 µM.

For the origin of these results see PubChem BioAssay (NCI).
